In US9833497B2, “Human originated EGF domain proteins and use of the same” (CHENGDU SOURCEBIO LIMITED-LIABILITY COMPANY, priority 2013, dated 2017):

Legend:
Format in all cases: cell-based
E. coli BL21 = assay: MIC against Gram-negative bacteria: E. coli BL21; conditions: 5×10^5 CFU/mL; for MIC E. coli BL21: two-fold serial dilution
In short: (§1)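 MIC = lowest concentration of recombinant protein showing no growth. Test proteins: purified human-derived EGF domain proteins, two-fold dilution series, three wells per concentration; inoculum 5×10^5 CFU/mL in LB; incubation 37° C with shaking at 175 rpm.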

E. coli DH5α = assay: Antibacterial activity: MIC and growth curve against E. coli DH5α in 96-well plate; conditions: minimal inhibitory concentration against E. coli DH5α; 96-well plate, 5×10^5 CFU/mL, 37° C., judged after 8 h
In short: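 MIC taken as lowest protein level with no bacterial growth, tracked by A600 every 30 min during 37 °C, 175 rpm culture. Two-fold protein series 50-12.5 μg/mL final, triplicate wells, against 5×10^5 CFU/mL of LB-washed mid-log cells.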

Aeromonas hydrophila = assay: MIC against Gram-negative bacteria: Aeromonas hydrophila; conditions: 5×10^5 CFU/mL; for MIC A. hydrophila: two-fold serial dilution
In short: as §1

Enterobacter cloacae = assay: MIC against Gram-negative bacteria: Enterobacter cloacae; conditions: 5×10^5 CFU/mL; for MIC E. cloacae: two-fold serial dilution
In short: as §1

Proteus mirabilis = assay: MIC against Gram-negative bacteria: Proteus mirabilis; conditions: 5×10^5 CFU/mL; for MIC P. mirabilis: two-fold serial dilution
In short: as §1

Klebsiella pneumonia = assay: MIC against Gram-negative bacteria: Klebsiella pneumonia; conditions: 5×10^5 CFU/mL; for MIC K. pneumonia: two-fold serial dilution
In short: as §1

Serratia marcescens = assay: MIC against Gram-negative bacteria: Serratia marcescens; conditions: 5×10^5 CFU/mL; for MIC S. marcescens: two-fold serial dilution
In short: as §1

Citrobacter diversus = assay: MIC against Gram-negative bacteria: Citrobacter diversus; conditions: 5×10^5 CFU/mL; for MIC C. diversus: two-fold serial dilution
In short: as §1

Proteus vulgaris = assay: MIC against Gram-negative bacteria: Proteus vulgaris; conditions: 5×10^5 CFU/mL; for MIC P. vulgaris: two-fold serial dilution
In short: as §1

Pseudomonas aeruginosa = assay: MIC against Gram-negative bacteria: Pseudomonas aeruginosa; conditions: 5×10^5 CFU/mL; for MIC P. aeruginosa: two-fold serial dilution
In short: as §1

Moraxella catarrhalis = assay: MIC against Gram-negative bacteria: Moraxella catarrhalis; conditions: 5×10^5 CFU/mL; for MIC M. catarrhalis: two-fold serial dilution
In short: as §1

[1] = E. coli BL21, 10 h cultivation at 37° C.
[2] = Aeromonas hydrophila, 10 h cultivation at 37° C.
[3] = Enterobacter cloacae, 10 h cultivation at 37° C.
[4] = Proteus mirabilis, 10 h cultivation at 37° C.
[5] = Klebsiella pneumonia, 10 h cultivation at 37° C.
[6] = Serratia marcescens, 10 h cultivation at 37° C.
[7] = Citrobacter diversus, 10 h cultivation at 37° C.
[8] = Proteus vulgaris, 10 h cultivation at 37° C.
[9] = Pseudomonas aeruginosa, 10 h cultivation at 37° C.
[10] = Moraxella catarrhalis, 10 h cultivation at 37° C.

PRT1163 (SVNSCAVNPCLHNGECVADNTSRGYHCRCPPSWQGDDCS; listed as Homo sapiens)
MIC E. coli BL21 (E. coli BL21; 10 h cultivation at 37° C.): 25 µg/mL
MIC (E. coli DH5α): 12.5 µg/mL
MIC A. hydrophila (Aeromonas hydrophila; 10 h cultivation at 37° C.): 12.5 µg/mL
MIC E. cloacae (Enterobacter cloacae; 10 h cultivation at 37° C.): 12.5 µg/mL
MIC P. mirabilis (Proteus mirabilis; 10 h cultivation at 37° C.): 12.5 µg/mL
MIC K. pneumonia (Klebsiella pneumonia; 10 h cultivation at 37° C.): 25 µg/mL
MIC S. marcescens (Serratia marcescens; 10 h cultivation at 37° C.): 25 µg/mL
MIC C. diversus (Citrobacter diversus; 10 h cultivation at 37° C.): 12.5 µg/mL
MIC P. vulgaris (Proteus vulgaris; 10 h cultivation at 37° C.): 12.5 µg/mL
MIC P. aeruginosa (Pseudomonas aeruginosa; 10 h cultivation at 37° C.): 12.5 µg/mL
MIC M. catarrhalis (Moraxella catarrhalis; 10 h cultivation at 37° C.): 12.5 µg/mL

PRT1379 (GWPSCPGDCQGRGRCVQGVCVCRAGFSGPDC; listed as Homo sapiens)
MIC against E. coli BL21 (E. coli BL21; [1]): 12.5 µg/mL
MIC (E. coli DH5α): 50 µg/mL
MIC against A. hydrophila (Aeromonas hydrophila; [2]): 25 µg/mL
MIC against E. cloacae (Enterobacter cloacae; [3]): 50 µg/mL
MIC against P. mirabilis (Proteus mirabilis; [4]): 50 µg/mL
MIC against K. pneumonia (Klebsiella pneumonia; [5]): 12.5 µg/mL
MIC against S. marcescens (Serratia marcescens; [6]): 12.5 µg/mL
MIC against C. diversus (Citrobacter diversus; [7]): 12.5 µg/mL
MIC against P. vulgaris (Proteus vulgaris; [8]): 25 µg/mL
MIC against P. aeruginosa (Pseudomonas aeruginosa; [9]): 50 µg/mL
MIC against M. catarrhalis (Moraxella catarrhalis; [10]): 25 µg/mL

PRT1080 (IQSYCAKHLKCSQKCDQNKFSVKCSCYEGWVLEPDGESCR; listed as Homo sapiens)
MIC E. coli BL21 (E. coli BL21; 10 h cultivation at 37° C.): 25 µg/mL
MIC (E. coli DH5α): 50 µg/mL
MIC A. hydrophila (Aeromonas hydrophila; 10 h cultivation at 37° C.): 12.5 µg/mL
MIC E. cloacae (Enterobacter cloacae; 10 h cultivation at 37° C.): 50 µg/mL
MIC P. mirabilis (Proteus mirabilis; 10 h cultivation at 37° C.): 12.5 µg/mL
MIC K. pneumonia (Klebsiella pneumonia; 10 h cultivation at 37° C.): 25 µg/mL
MIC S. marcescens (Serratia marcescens; 10 h cultivation at 37° C.): 50 µg/mL
MIC C. diversus (Citrobacter diversus; 10 h cultivation at 37° C.): 12.5 µg/mL
MIC P. vulgaris (Proteus vulgaris; 10 h cultivation at 37° C.): 25 µg/mL
MIC P. aeruginosa (Pseudomonas aeruginosa; 10 h cultivation at 37° C.): 12.5 µg/mL
MIC M. catarrhalis (Moraxella catarrhalis; 10 h cultivation at 37° C.): 12.5 µg/mL

PRT525 (CNCNRDGTEPGVCDPGTGACLCKENVEGTECNVCREGSFHLDPANLKGCTS; listed as Homo sapiens)
MIC against E. coli BL21 (E. coli BL21; 96-well plate, 37° C., 10 h): 12.5 µg/mL
MIC (E. coli DH5α): 25 µg/mL
MIC against A. hydrophila (Aeromonas hydrophila; 96-well plate, 37° C., 10 h): 12.5 µg/mL
MIC against E. cloacae (Enterobacter cloacae; 96-well plate, 37° C., 10 h): 25 µg/mL
MIC against P. mirabilis (Proteus mirabilis; 96-well plate, 37° C., 10 h): 25 µg/mL
MIC against K. pneumonia (Klebsiella pneumonia; 96-well plate, 37° C., 10 h): 50 µg/mL
MIC against S. marcescens (Serratia marcescens; 96-well plate, 37° C., 10 h): 25 µg/mL
MIC against C. diversus (Citrobacter diversus; 96-well plate, 37° C., 10 h): 25 µg/mL
MIC against P. vulgaris (Proteus vulgaris; 96-well plate, 37° C., 10 h): 12.5 µg/mL
MIC against P. aeruginosa (Pseudomonas aeruginosa; 96-well plate, 37° C., 10 h): 25 µg/mL
MIC against M. catarrhalis (Moraxella catarrhalis; 96-well plate, 37° C., 10 h): 50 µg/mL

PRT808 (YGPNCSSICSCNNGGTCSPVDGSCTCKEGWQGLDCT; listed as Homo sapiens)
MIC (μg/mL) E. coli BL21 (E. coli BL21; [1]): 50 µg/mL
MIC (E. coli DH5α): 25 µg/mL
MIC (μg/mL) A. hydrophila (Aeromonas hydrophila; A. hydrophila, 10 h cultivation at 37° C.): 12.5 µg/mL
MIC (μg/mL) E. cloacae (Enterobacter cloacae; E. cloacae, 10 h cultivation at 37° C.): 25 µg/mL
MIC (μg/mL) P. mirabilis (Proteus mirabilis; P. mirabilis, 10 h cultivation at 37° C.): 25 µg/mL
MIC (μg/mL) K. pneumonia (Klebsiella pneumonia; K. pneumonia, 10 h cultivation at 37° C.): 50 µg/mL
MIC (μg/mL) S. marcescens (Serratia marcescens; S. marcescens, 10 h cultivation at 37° C.): 50 µg/mL
MIC (μg/mL) C. diversus (Citrobacter diversus; C. diversus, 10 h cultivation at 37° C.): 25 µg/mL
MIC (μg/mL) P. vulgaris (Proteus vulgaris; P. vulgaris, 10 h cultivation at 37° C.): 12.5 µg/mL
MIC (μg/mL) P. aeruginosa (Pseudomonas aeruginosa; P. aeruginosa, 10 h cultivation at 37° C.): 12.5 µg/mL
MIC (μg/mL) M. catarrhalis (Moraxella catarrhalis; M. catarrhalis, 10 h cultivation at 37° C.): 50 µg/mL

PRT1363 (SEKRCPADCHNRGRCVDGRCECDDGFTGADCG; listed as Homo sapiens)
MIC against E. coli BL21 (E. coli BL21; [1]): 12.5 µg/mL
MIC (E. coli DH5α): 12.5 µg/mL
MIC against A. hydrophila (Aeromonas hydrophila; [2]): 12.5 µg/mL
MIC against E. cloacae (Enterobacter cloacae; [3]): 50 µg/mL
MIC against P. mirabilis (Proteus mirabilis; [4]): 25 µg/mL
MIC against K. pneumonia (Klebsiella pneumonia; [5]): 12.5 µg/mL
MIC against S. marcescens (Serratia marcescens; [6]): 50 µg/mL
MIC against C. diversus (Citrobacter diversus; [7]): 25 µg/mL
MIC against P. vulgaris (Proteus vulgaris; [8]): 12.5 µg/mL
MIC against P. aeruginosa (Pseudomonas aeruginosa; [9]): 12.5 µg/mL
MIC against M. catarrhalis (Moraxella catarrhalis; [10]): 50 µg/mL

PRT1113 (HVDPCHSAPCARGRCHTHPDGRFECRCPPGFGGPRCR; listed as Homo sapiens)
MIC E. coli BL21 (E. coli BL21; 10 h cultivation at 37° C.): 12.5 µg/mL
MIC (E. coli DH5α): 12.5 µg/mL
MIC A. hydrophila (Aeromonas hydrophila; 10 h cultivation at 37° C.): 12.5 µg/mL
MIC E. cloacae (Enterobacter cloacae; 10 h cultivation at 37° C.): 12.5 µg/mL
MIC P. mirabilis (Proteus mirabilis; 10 h cultivation at 37° C.): 25 µg/mL
MIC K. pneumonia (Klebsiella pneumonia; 10 h cultivation at 37° C.): 12.5 µg/mL
MIC S. marcescens (Serratia marcescens; 10 h cultivation at 37° C.): 25 µg/mL
MIC C. diversus (Citrobacter diversus; 10 h cultivation at 37° C.): 50 µg/mL
MIC P. vulgaris (Proteus vulgaris; 10 h cultivation at 37° C.): 50 µg/mL
MIC P. aeruginosa (Pseudomonas aeruginosa; 10 h cultivation at 37° C.): 12.5 µg/mL
MIC M. catarrhalis (Moraxella catarrhalis; 10 h cultivation at 37° C.): 12.5 µg/mL
